{
  "source": "patent US7414140B2",
  "about": "(Teva Pharmaceutical Industries Ltd., priority 2003, dated 2008)",
  "assay": "Solubility of fluvastatin sodium in solvents",
  "assay_type": "physicochemical",
  "conditions": "in water at 100° C.; read-out: Concentration of solution obtainable (solubility)",
  "text": "Fluvastatin sodium Form XLI can be prepared by precipitating fluvastatin sodium from a mixture of water and acetonitrile. Fluvastatin sodium should first be dissolved in water. The water may be heated in order to produce a more concentrated solution and maximized recovery of Form XLI. […] The addition is done at whatever elevated temperature was used to dissolve the starting material or at higher temperature. The addition is dropwise and will generally require adding a excess of acetonitrile over the amount of water that was used. For example, we used a little less than four volumes of acetonitrile. The resulting heterogeneous mixture is then allowed to cool. Before isolating the fluvastatin sodium Form XLI that precipitates. The recovery can be improved by adding an addition portion of acetonitrile after cooling.\nFluvastatin sodium Form L can be prepared by precipitation from a mixture of methanol and ethyl acetate. The fluvastatin sodium starting material, in any crystalline form or amorphous, should first be dissolved in the methanol. […] The starting material can be dissolved either at ambient or elevated temperature, e.g. the boiling point of methanol. Once dissolved, precipitation of Form L is induced by dropwise addition of ethyl acetate to the solution at elevated temperature. The amount of ethyl acetate used is preferably about three times the volume of methanol. […]",
  "data": [
    {"smiles": "CC(C)n1c(/C=C/C(O)CC(O)CC(=O)O)c(-c2ccc(F)cc2)c2ccccc21", "note": "(stereo not drawn) [Fluvastatin sodium, [R*,S*-(E)]-(±)-7-[3-(4-fluorophenyl)-1-(1-methylethyl)-1H-indol-2-yl]-3,5-dihydroxy-6-heptenoic acid monosodium]", "values": [
      {"measurement": "solubility", "result": "≥ 375", "unit": "mg/mL"}
    ]}
  ]
}
